Data taken from PubChem BioAssay AID256 (DTP/NCI, 2004).
Where “and” joins values, the source holds several entries; their conditions need not be identical. Identical values can stand only once. Inconclusive results and toxic doses are left out. The calls were made as follows: active = survival T/C of 150% or more; inactive = T/C below 125% in these data.

System: CD2F1 mice, L1210 leukemia ip, survival T/C
Test: NCI In Vivo Anticancer Drug Screen. Data for tumor model L1210 Leukemia (intraperitoneal) in CD2F1 (CDF1) mice
Settings: higher = longer survival
Method in brief: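 In this screen, transplantable tumors were grown in mice given either the compound or its vehicle. Results were expressed as the treated measurement relative to the control measurement.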

[1] = endpoint: mean survival time, dose: 100.0 mg/kg/injection, schedule: Q04DX003 (ip), vehicle: saline with Tween-80
[2] = endpoint: mean survival time, dose: 200.0 mg/kg/injection, schedule: Q04DX003 (ip), vehicle: saline with Tween-80
[3] = endpoint: mean survival time, dose: 400.0 mg/kg/injection, schedule: Q04DX003 (ip), vehicle: saline with Tween-80
[4] = endpoint: mean survival time, dose: 100.0 mg/kg/injection, schedule: Q01DX001 (ip), vehicle: saline
[5] = endpoint: mean survival time, dose: 50.0 mg/kg/injection, schedule: Q01DX009 (ip), vehicle: Klucel (hydroxypropylcellulose) (HPC)
[6] = endpoint: mean survival time, dose: 100.0 mg/kg/injection, schedule: Q01DX009 (ip), vehicle: Klucel (hydroxypropylcellulose) (HPC)
[7] = endpoint: mean survival time, dose: 200.0 mg/kg/injection, schedule: Q01DX009 (ip), vehicle: Klucel (hydroxypropylcellulose) (HPC)
[8] = endpoint: mean survival time, dose: 100.0 mg/kg/injection, schedule: Q01DX009 (ip), vehicle: saline with Tween-80
[9] = endpoint: mean survival time, dose: 200.0 mg/kg/injection, schedule: Q01DX009 (ip), vehicle: saline with Tween-80
[10] = endpoint: mean survival time, dose: 400.0 mg/kg/injection, schedule: Q01DX009 (ip), vehicle: saline with Tween-80
[11] = endpoint: mean survival time, dose: 12.5 mg/kg/injection, schedule: Q01DX009 (ip), vehicle: saline with Tween-80
[12] = endpoint: mean survival time, dose: 25.0 mg/kg/injection, schedule: Q01DX009 (ip), vehicle: saline with Tween-80
[13] = endpoint: mean survival time, dose: 50.0 mg/kg/injection, schedule: Q01DX009 (ip), vehicle: saline with Tween-80

Measured: T/C

Cc1ccc(OCC(=O)C2CSc3ccc(Cl)cc32)cc1 (stereo unspecified)
inactive: [1] 97 % of control | [2] 94 % of control | [3] 111 % of control

Nc1ncnc2c1ncn2C1OCC(O)C(O)C1O (stereo unspecified)
inactive: endpoint: mean survival time, dose: 50.0 mg/kg/injection, schedule: Q01DX001 (ip), vehicle: saline 101 % of control | [4] 102 % of control | endpoint: mean survival time, dose: 200.0 mg/kg/injection, schedule: Q01DX001 (ip), vehicle: saline 101 % of control | endpoint: mean survival time, dose: 400.0 mg/kg/injection, schedule: Q01DX001 (ip), vehicle: saline 98 % of control

c1ccc2c(c1)[nH]c1c3[n+](ccc12)CCCC3
inactive: [4] 119 % of control

Cc1cc(N2C(=O)CCSC2=S)ccc1Cl
inactive: endpoint: mean survival time, dose: 12.5 mg/kg/injection, schedule: Q01DX009 (ip), vehicle: Klucel (hydroxypropylcellulose) (HPC) 101 % of control and 105 % of control | endpoint: mean survival time, dose: 25.0 mg/kg/injection, schedule: Q01DX009 (ip), vehicle: Klucel (hydroxypropylcellulose) (HPC) 95 % of control and 103 % of control and 109 % of control | [5] 113 % of control and 97 % of control | [6] 122 % of control and 123 % of control and 97 % of control | [7] 95 % of control and 107 % of control | endpoint: mean survival time, dose: 400.0 mg/kg/injection, schedule: Q01DX009 (ip), vehicle: Klucel (hydroxypropylcellulose) (HPC) 102 % of control

Cl
inactive: endpoint: mean survival time, dose: 6.25 mg/kg/injection, schedule: Q01DX009 (ip), vehicle: saline sonified 103 % of control | endpoint: mean survival time, dose: 6.25 mg/kg/injection, schedule: Q04DX003 (ip), vehicle: saline with Tween-80 100 % of control | endpoint: mean survival time, dose: 12.5 mg/kg/injection, schedule: Q01DX009 (ip), vehicle: saline sonified 101 % of control | endpoint: mean survival time, dose: 12.5 mg/kg/injection, schedule: Q04DX003 (ip), vehicle: saline with Tween-80 98 % of control | endpoint: mean survival time, dose: 25.0 mg/kg/injection, schedule: Q01DX009 (ip), vehicle: saline sonified 106 % of control | endpoint: mean survival time, dose: 25.0 mg/kg/injection, schedule: Q04DX003 (ip), vehicle: saline with Tween-80 98 % of control

O=C1Nc2ccccc2C1c1ccccc1 (stereo unspecified)
inactive: endpoint: mean survival time, dose: 100.0 mg/kg/injection, schedule: Q04DX002 (ip), vehicle: saline with Tween-80 97 % of control | endpoint: mean survival time, dose: 200.0 mg/kg/injection, schedule: Q04DX002 (ip), vehicle: saline with Tween-80 90 % of control

CN=C1CCCCN1
inactive: endpoint: mean survival time, dose: 100.0 mg/kg/injection, schedule: Q04DX003 (ip), vehicle: saline sonified 103 % of control | endpoint: mean survival time, dose: 200.0 mg/kg/injection, schedule: Q04DX003 (ip), vehicle: saline sonified 104 % of control | endpoint: mean survival time, dose: 400.0 mg/kg/injection, schedule: Q04DX003 (ip), vehicle: saline sonified 103 % of control

COc1ccc(NC(=O)Nc2ccc(F)c(Cl)c2)c(OC)c1
inactive: [8] 97 % of control | [9] 103 % of control | [10] 112 % of control

N/C=N/O
inactive: endpoint: mean survival time, dose: 66.0 mg/kg/injection, schedule: Q01DX009 (ip), vehicle: saline 112 % of control | endpoint: mean survival time, dose: 100.0 mg/kg/injection, schedule: Q01DX009 (ip), vehicle: saline 120 % of control and 110 % of control | endpoint: mean survival time, dose: 400.0 mg/kg/injection, schedule: Q01DX009 (ip), vehicle: saline 114 % of control

C1CCC(C2CCCC[N-]2)[N-]C1.CCC(C)C([NH-])C(=O)O.[Cl][Pt] (stereo unspecified)
inactive: endpoint: median survival time, dose: 10.0 mg/kg/injection, schedule: Q04DX003 (ip), vehicle: saline 101 % of control | endpoint: median survival time, dose: 20.0 mg/kg/injection, schedule: Q04DX003 (ip), vehicle: saline 98 % of control | endpoint: median survival time, dose: 40.0 mg/kg/injection, schedule: Q04DX003 (ip), vehicle: saline 101 % of control | endpoint: median survival time, dose: 80.0 mg/kg/injection, schedule: Q04DX003 (ip), vehicle: saline 98 % of control

O=C(Nc1ccc2c3c(cccc13)C=C2)c1ccccc1
inactive: [1] 96 % of control | [2] 93 % of control | [3] 93 % of control

CCCCCCC[CH2][Sn]([CH2]C)([CH2]C)[O]C(C)=O
inactive: endpoint: mean survival time, dose: 0.25 mg/kg/injection, schedule: Q04DX003 (ip), vehicle: saline 106 % of control | endpoint: mean survival time, dose: 0.5 mg/kg/injection, schedule: Q04DX003 (ip), vehicle: saline 101 % of control | endpoint: mean survival time, dose: 0.63 mg/kg/injection, schedule: Q04DX003 (ip), vehicle: saline 93 % of control | endpoint: mean survival time, dose: 1.0 mg/kg/injection, schedule: Q04DX003 (ip), vehicle: saline 103 % of control | endpoint: mean survival time, dose: 1.25 mg/kg/injection, schedule: Q04DX003 (ip), vehicle: saline 102 % of control

COc1ccc(CNc2ccc([N+](=O)[O-])c3nonc23)cc1
inactive: [5] 94 % of control | [6] 86 % of control | [7] 94 % of control

CCCCCCCNC(=O)Nc1ccc(Cl)c(Cl)c1
inactive: endpoint: mean survival time, dose: 100.0 mg/kg/injection, schedule: Q01DX001 (ip), vehicle: saline with Tween-80 103 % of control | endpoint: mean survival time, dose: 200.0 mg/kg/injection, schedule: Q01DX001 (ip), vehicle: saline with Tween-80 100 % of control | endpoint: mean survival time, dose: 400.0 mg/kg/injection, schedule: Q01DX001 (ip), vehicle: saline with Tween-80 103 % of control

Clc1cc(CBr)c(CBr)cc1Cl
inactive: [11] 107 % of control | [12] 97 % of control | [13] 100 % of control

CCCCCCCCCCC(CCCCCCCCCC)c1ccccc1
inactive: endpoint: mean survival time, dose: 100.0 mg/kg/injection, schedule: Q01DX001 (ip), vehicle: saline sonified 108 % of control | endpoint: mean survival time, dose: 200.0 mg/kg/injection, schedule: Q01DX001 (ip), vehicle: saline sonified 104 % of control | endpoint: mean survival time, dose: 400.0 mg/kg/injection, schedule: Q01DX001 (ip), vehicle: saline sonified 114 % of control

O=C1C2CCCC3CCCC(C(=O)N1NC1CCCCC1)C32 (stereo unspecified)
inactive: [11] 96 % of control | [12] 89 % of control | [13] 86 % of control | [8] 88 % of control

Clc1ccc(N=Cc2ccccc2Cl)cc1
inactive: [1] 107 % of control | [2] 113 % of control | [3] 100 % of control

Cc1ccc[n+](CC(O)c2ccc(C(O)C[n+]3cccc(C)c3)cc2)c1 (stereo unspecified)
inactive: endpoint: mean survival time, dose: 0.08 mg/kg/injection, schedule: Q04DX003 (ip), vehicle: saline 101 % of control | endpoint: mean survival time, dose: 0.15 mg/kg/injection, schedule: Q04DX003 (ip), vehicle: saline 101 % of control

COc1cc2c(cc1O)NC(OC)C1CC(O)CN1C2=O (stereo unspecified)
inactive: endpoint: median survival time, dose: 0.02 mg/kg/injection, schedule: Q01DX005 (ip), vehicle: DMSO 101 % of control | endpoint: median survival time, dose: 0.4 mg/kg/injection, schedule: Q01DX005 (ip), vehicle: DMSO 102 % of control | endpoint: median survival time, dose: 0.8 mg/kg/injection, schedule: Q01DX005 (ip), vehicle: DMSO 100 % of control | endpoint: median survival time, dose: 1.6 mg/kg/injection, schedule: Q01DX005 (ip), vehicle: DMSO 102 % of control | endpoint: median survival time, dose: 3.2 mg/kg/injection, schedule: Q01DX005 (ip), vehicle: DMSO 111 % of control | endpoint: median survival time, dose: 6.4 mg/kg/injection, schedule: Q01DX005 (ip), vehicle: DMSO 115 % of control

CCCC(O)C1CCCCC1O (stereo unspecified)
inactive: [8] 92 % of control | [9] 92 % of control | [10] 96 % of control

CC1=C(C)C2(C)C(C)(O)C(C)(O)C12C (stereo unspecified)
inactive: endpoint: mean survival time, dose: 18.75 mg/kg/injection, schedule: Q01DX009 (ip), vehicle: saline with Tween-80 98 % of control | endpoint: mean survival time, dose: 37.5 mg/kg/injection, schedule: Q01DX009 (ip), vehicle: saline with Tween-80 93 % of control | endpoint: mean survival time, dose: 75.0 mg/kg/injection, schedule: Q01DX009 (ip), vehicle: saline with Tween-80 96 % of control

CC(=O)Oc1cccc2c1C(=O)C1(O)C(C=O)=CC3OC(C)(C)OC2(C)C31 (stereo unspecified)
inactive: endpoint: mean survival time, dose: 75.0 mg/kg/injection, schedule: Q01DX001 (ip), vehicle: other 102 % of control | endpoint: mean survival time, dose: 150.0 mg/kg/injection, schedule: Q01DX001 (ip), vehicle: other 108 % of control | endpoint: mean survival time, dose: 300.0 mg/kg/injection, schedule: Q01DX001 (ip), vehicle: other 103 % of control

CN(C)c1ccc(/C=C2/CCCC/C2=N/O)cc1
inactive: endpoint: mean survival time, dose: 100.0 mg/kg/injection, schedule: Q04DX003 (ip), vehicle: Klucel (hydroxypropylcellulose) (HPC) 102 % of control | endpoint: mean survival time, dose: 200.0 mg/kg/injection, schedule: Q04DX003 (ip), vehicle: Klucel (hydroxypropylcellulose) (HPC) 94 % of control | endpoint: mean survival time, dose: 400.0 mg/kg/injection, schedule: Q04DX003 (ip), vehicle: Klucel (hydroxypropylcellulose) (HPC) 98 % of control

c1ccc2c(c1)[nH]c1ccncc12
inactive: [12] 98 % of control | [13] 90 % of control | [8] 87 % of control

CCCCCCCCCCCCCCCC(=O)N1CCCN(C(=O)CCCCCCCCCCCCCCC)C1
inactive: endpoint: mean survival time, dose: 75.0 mg/kg/injection, schedule: Q04DX003 (ip), vehicle: saline 89 % of control | endpoint: mean survival time, dose: 150.0 mg/kg/injection, schedule: Q04DX003 (ip), vehicle: saline 89 % of control | endpoint: mean survival time, dose: 300.0 mg/kg/injection, schedule: Q04DX003 (ip), vehicle: saline 103 % of control

CCOC/C=C/C(C)(C)C
inactive: [13] 102 % of control | [8] 102 % of control | [9] 97 % of control
